test system: not listed separately; assay: GI S9 stability (Ex. Z), cyno intestinal S9; assay type: in vitro ADME; settings: cynomolgus monkey, pooled intestinal S9 fractions; cyno intestinal S9, 1.0 mg/mL protein, 2 μM substrate, pH 7.4; read-out: GIS9 Cyno T½ (per Ex. Z)
Procedure: Example Z: GI S9 stability data:
Stock solutions of test compounds in dimethyl sulfoxide (DMSO) having a final concentration of 10 mM were prepared and used in all experiments. Sekisui XenoTech (Kansas City, KS) provided pooled intestinal S9 fractions. All other chemicals were purchased from Sigma-Aldrich (St. Louis, MO) or VWR (West Chester, PA). Internal Standard/Quench (IS/Q) used to stop reactions was 100 nM labetalol in (by volume) methanol (10%) and acetonitrile (90%).
Stability in Intestinal S9 Fractions: Duplicate aliquots of test compound or positive control substrate were added to S9 stock diluted with phosphate buffered saline (137 mM NaCl, 2.7 mM KCl, 10 mM phosphate buffer), pH 7.4, to obtain a protein concentration of 1.0 mg/mL. The metabolic reactions were initiated by the addition of the substrates to the S9 reaction mixture to a final concentration of 2 μM. At 0, 10, 20, 30, 60 and 120 min, 25 μL aliquots of the reaction mixture were transferred to plates containing 225 μl of IS/Q solution. After quenching, the plates were centrifuged at 3000×g for 30 minutes. 150 μL aliquots of each supernatant were dried down then reconstituted with 300 μL water. Aliquots (10 μL) of the prepared samples were analyzed on a Thermo Q-Exactive mass spectrometer as described below.
Liquid Chromatography—Mass Spectrometry: Quantification of test compounds and control substrate was performed by analyte/internal standard peak area ratio (PAR) values measured on a Thermo Q-Exactive mass spectrometer coupled to a Dionex UltiMate 3000 HPLC with a Leap Technologies HTC PAL autosampler. The column used for analysis was a Waters Acquity BEH C18 (1.7 μm particle size, 2.1×50 mm). Mobile phase A consisted of 0.1% (v/v) formic acid in water. Mobile phase B consisted of 0.1% (v/v) formic acid in acetonitrile. Elution of analytes was achieved by a series of linear gradients varying the proportions of A and B. The mass spectrometer was calibrated on a weekly basis and mass tolerance of 5 ppm was used.
Metabolic stabilities in S9 fractions were determined by measuring the rates of disappearance of test compound and positive control substrate.
Data (% of substrate remaining) were plotted on a semi-log scale and fitted using an exponential decline model:
Where Ct—% of substrate remaining at time=t; C0—% of substrate remaining at time=0; t—time; T½—half-life The Half-life (T½) is determined by the following equation: […]
Assuming a first-order reaction, the slope (k) is extrapolated from the aforementioned plotted data.

Work on `N#C[C@]1(COC(=O)C2CCCCC2)O[C@@H](c2ccc3c(N)ncnn23)[C@H](O)[C@@H]1O` [Compound 19, ((2R,3S,4R,5S)-5-(4-aminopyrrolo[2,1-f][1,2,4]triazin-7-yl)-2-cyano-3,4-dihydroxytetrahydrofuran-2-yl)methyl cyclohexanecarboxylate] yielded a half-life at 2 μM of 2 min.

test system: Respiratory syncytial virus recombinant with luciferase (RSV-Luc5) in NHBE cells; assay: NHBE RSV-Luc5 384-well Assay (RSV FLUC NHBE 384 V2, Ex. W); assay type: cell-based; settings: human respiratory syncytial virus, 72 h, read-out: EC50 RSV FLUC NHBE 384 V2 (per Ex. W)
Source text: Example W: NHBE RSV-Luc5 384-well Assay (EC50 RSVFLUC NHBE-384)
Normal Human Bronchial Epithelial (NHBE) cells were purchased from Lonza (Walkersville, MD Cat #CC2540) and maintained in BEGM Bronchial Epithelial Cell Growth Medium BulletKit (Lonza CC-3170).
Cells were thawed, expanded, and were used for experiments at passage 2. Respiratory syncytial virus recombinant with luciferase (RSV-Luc5) (≥1×10^7 Infectious Units/mL (IU/mL) determined by TCID50) was purchased from Microbiologics (Saint Cloud, MN). Viral replication was determined in NHBE cells in the following manner.
Compounds are prepared in 100% DMSO in 384-well polypropylene plates (Greiner, Monroe, NC, Cat #784201) with 8 compounds per plate in grouped replicates of 4 at 10 serially diluted concentrations (1:3). The serially diluted compounds were transferred to low dead volume Echo plates (Labcyte, Sunnyvale, CA, Cat #LP-0200).
The test compounds were spotted to 384-well assay plates (Greiner, Monroe, NC, Cat#781091) at 200 nL per well using an Echo acoustic dispenser (Labcyte, Sunnyvale, CA). NHBE cells were harvested and suspended in BEGM Bronchial Epithelial Cell Growth Medium BulletKit and seeded to the pre-spotted assay plates at 5,000 cells per well in 30 μL. RSV-Luc5 virus was diluted in BEGM Bronchial Epithelial Cell Growth Medium BulletKit at 500,000 Infectious Units (IU) per mL and 10 μL per well was added to the assay plates containing cells and compounds, for an MOI of 1. The assay plates were incubated for 3 days at 37° C. and 5% CO2. At the end of incubation, One-Glo reagent (Promega, Madison, WI, Cat #E6120) was prepared. The assay plates and One-Glo reagent were equilibrated to room temperature for at least 15 minutes. 40 μL per well of One-Glo reagent was added and the plates were incubated at room temperature for 15 minutes before reading the luminescence signal on an EnVision multimode plate reader (Perkin Elmer, Waltham, MA). Remdesivir was used as positive control and DMSO was used as negative control. Values were normalized to the positive and negative controls (as 0% and 100% replication, respectively) and data was fitted using non-linear regression analysis by Gilead's dose response tool. The EC50 value for each compound was defined as the concentration reducing the viral replication by 50%.

Going from `N#C[C@]1(COC(=O)C2CCCCC2)O[C@@H](c2ccc3c(N)ncnn23)[C@H](O)[C@@H]1O` [Compound 19, ((2R,3S,4R,5S)-5-(4-aminopyrrolo[2,1-f][1,2,4]triazin-7-yl)-2-cyano-3,4-dihydroxytetrahydrofuran-2-yl)methyl cyclohexanecarboxylate] to `N#C[C@]1(COC(=O)C2CC3(CCC3)C2)O[C@@H](c2ccc3c(N)ncnn23)[C@H](O)[C@@H]1O` [Compound 32, ((2R,3S,4R,5S)-5-(4-aminopyrrolo[2,1-f][1,2,4]triazin-7-yl)-2-cyano-3,4-dihydroxytetrahydrofuran-2-yl)methyl spiro[3.3]heptane-2-carboxylate], the EC50 falls from 10.9 µM to 6.7 µM (1.6-fold).

`[H]/N=c1/c2ccc([C@@H]3O[C@](C#N)(CO)[C@@H](O)[C@H]3O)n2ncn1COC(=O)C(C)C` [Compound 34, (7-((2S,3R,4S,5R)-5-cyano-3,4-dihydroxy-5-(hydroxymethyl)tetrahydrofuran-2-yl)-4-iminopyrrolo[2,1-f][1,2,4]triazin-3(4H)-yl)methyl isobutyrate] and `CC(C)C(=O)Nc1ncnn2c([C@@H]3O[C@](C#N)(CO)[C@@H](O)[C@H]3O)ccc12` [Compound 30, N-(7-((2S,3R,4S,5R)-5-cyano-3,4-dihydroxy-5-(hydroxymethyl)tetrahydrofuran-2-yl)pyrrolo[2,1-f][1,2,4]triazin-4-yl)isobutyramide] are within 1.5-fold of each other in EC50: 39.1 µM for the first, 38.5 µM for the second.

`N#C[C@]1(COC(=O)[C@H]2CCC(=O)O2)O[C@@H](c2ccc3c(N)ncnn23)[C@H](O)[C@@H]1O` [Compound 25, ((2R,3S,4R,5S)-5-(4-aminopyrrolo[2,1-f][1,2,4]triazin-7-yl)-2-cyano-3,4-dihydroxytetrahydrofuran-2-yl)methyl (R)-5-oxotetrahydrofuran-2-carboxylate] and `CC[C@@H](C)C(=O)OC[C@@]1(C#N)O[C@@H](c2ccc3c(N)ncnn23)[C@H](O)[C@@H]1O` [Compound 37, ((2R,3S,4R,5S)-5-(4-aminopyrrolo[2,1-f][1,2,4]triazin-7-yl)-2-cyano-3,4-dihydroxytetrahydrofuran-2-yl)methyl (R)-2-methylbutanoate] are within 1.5-fold of each other in EC50: 11.7 µM for the first, 9.93 µM for the second.

`CC(C)(C)CCC(=O)OC[C@@]1(C#N)O[C@@H](c2ccc3c(N)ncnn23)[C@H](O)[C@@H]1O` [Compound 36, ((2R,3S,4R,5S)-5-(4-aminopyrrolo[2,1-f][1,2,4]triazin-7-yl)-2-cyano-3,4-dihydroxytetrahydrofuran-2-yl)methyl 4,4-dimethylpentanoate] and `CCC(C)(C)CC(=O)OC[C@@]1(C#N)O[C@@H](c2ccc3c(N)ncnn23)[C@H](O)[C@@H]1O` [Compound 27, ((2R,3S,4R,5S)-5-(4-aminopyrrolo[2,1-f][1,2,4]triazin-7-yl)-2-cyano-3,4-dihydroxytetrahydrofuran-2-yl)methyl 3,3-dimethylpentanoate] are within 1.5-fold of each other in EC50: 10.8 µM for the first, 12.2 µM for the second.

First: CC(C)(C)CC(=O)Nc1ncnn2c([C@@H]3O[C@](C#N)(COC(=O)CC(C)(C)C)[C@@H](O)[C@H]3O)ccc12 [Compound 26, ((2R,3S,4R,5S)-2-cyano-5-(4-(3,3-dimethylbutanamido)pyrrolo[2,1-f][1,2,4]triazin-7-yl)-3,4-dihydroxytetrahydrofuran-2-yl)methyl 3,3-dimethylbutanoate]
Second: CC(=O)OC[C@@]1(C#N)O[C@@H](c2ccc3c(NC(=O)C(C)C)ncnn23)[C@H](O)[C@@H]1O [Compound 23, ((2R,3S,4R,5S)-2-cyano-3,4-dihydroxy-5-(4-isobutyramidopyrrolo[2,1-f][1,2,4]triazin-7-yl)tetrahydrofuran-2-yl)methyl acetate]
The EC50 of the first is 1.8-fold higher: 26.6 µM for the first, 14.9 µM for the second.

First: CC(=O)OC[C@@]1(C#N)O[C@@H](c2ccc3c(N)ncnn23)[C@H](OC(C)=O)[C@@H]1OC(C)=O [Compound 28, (2R,3S,4S,5S)-2-(acetoxymethyl)-5-(4-aminopyrrolo[2,1-f][1,2,4]triazin-7-yl)-2-cyanotetrahydrofuran-3,4-diyl diacetate]
Second: CCC(C)(C)C(=O)OC[C@@]1(C#N)O[C@@H](c2ccc3c(N)ncnn23)[C@H](O)[C@@H]1O [Compound 35, ((2R,3S,4R,5S)-5-(4-aminopyrrolo[2,1-f][1,2,4]triazin-7-yl)-2-cyano-3,4-dihydroxytetrahydrofuran-2-yl)methyl 2,2-dimethylbutanoate]
The EC50 of the first is 2.6-fold higher: 24.6 µM for the first, 9.6 µM for the second. The second is the more potent here.

Going from `CC1(CC(=O)OC[C@@]2(C#N)O[C@@H](c3ccc4c(N)ncnn34)[C@H](O)[C@@H]2O)CCC1` [Compound 33, ((2R,3S,4R,5S)-5-(4-aminopyrrolo[2,1-f][1,2,4]triazin-7-yl)-2-cyano-3,4-dihydroxytetrahydrofuran-2-yl)methyl 2-(1-methylcyclobutyl)acetate] to `CC1(C(=O)OC[C@@]2(C#N)O[C@@H](c3ccc4c(N)ncnn34)[C@H](O)[C@@H]2O)CCC1` [Compound 24, ((2R,3S,4R,5S)-5-(4-aminopyrrolo[2,1-f][1,2,4]triazin-7-yl)-2-cyano-3,4-dihydroxytetrahydrofuran-2-yl)methyl 1-methylcyclobutane-1-carboxylate], the EC50 falls from 50 µM to 10.8 µM (4.6-fold).

`N#C[C@]1(COC(=O)Cc2ccccc2)O[C@@H](c2ccc3c(N)ncnn23)[C@H](O)[C@@H]1O` [Compound 38, ((2R,3S,4R,5S)-5-(4-aminopyrrolo[2,1-f][1,2,4]triazin-7-yl)-2-cyano-3,4-dihydroxytetrahydrofuran-2-yl)methyl 2-phenylacetate] and `CC(C)C(=O)O[C@H]1[C@H](c2ccc3c(N)ncnn23)O[C@](C#N)(COC(=O)c2ccccc2)[C@H]1O` [Compound 22, ((2R,3S,4R,5S)-5-(4-aminopyrrolo[2,1-f][1,2,4]triazin-7-yl)-2-cyano-3-hydroxy-4-(isobutyryloxy)tetrahydrofuran-2-yl)methyl benzoate] are within 1.5-fold of each other in EC50: 10.6 µM for the first, 11.3 µM for the second.

`CC(C)(CF)C(=O)OC[C@@]1(C#N)O[C@@H](c2ccc3c(N)ncnn23)[C@H](O)[C@@H]1O` [Compound 29, ((2R,3S,4R,5S)-5-(4-aminopyrrolo[2,1-f][1,2,4]triazin-7-yl)-2-cyano-3,4-dihydroxytetrahydrofuran-2-yl)methyl 3-fluoro-2,2-dimethylpropanoate] showed an EC50 of 13 µM.
